Series [1] relates to Mus musculus. The note with it: duration: 10 days, inhalation, CF1.
A further series has as its system Oryctolagus sp. Conditions: for NOAEL: duration: 13 days, inhalation, New Zealand; for LD50: acute, dermal.
The test system of series [2] is Rattus norvegicus. Conditions: for NOAEL: Sprague-Dawley.
The subject of series [3] is Rattus norvegicus. Conditions: repeat dose other; oral.
Series [4] concerns Rattus norvegicus. Conditions: M/F.
For series [5], the system named is Mus musculus. The note with it: M/F.
Series [6] has as its system Rattus norvegicus. Conditions: for NOAEL: M/F; for LOAEL: short-term.
Series [7] has as its system Rattus norvegicus. The note with it: short-term, duration: 28 days, oral.
The test system of series [8] is Rattus norvegicus. The note with it: oral; for NOEL: M/F.
Series [9] deals with Canidae. Conditions: immunotoxicology; duration: 14 months; oral; capsule; Beagle; Re-emergence of haemolytic anaemia.
The subject of series [10] is Rattus norvegicus. Conditions: oral.
The test system of series [11] is Canidae. The note with it: subchronic; oral; M/F; Dog Other; red blood cell and liver effects.
The test system of a further series is Homo sapiens. Conditions: clinical.
Setting [12] is: chronic, oral, diet, liver cell polymorphism.
The mark [13] stands for this setting: subchronic, duration: 90 days, inhalation, nasal turbinates.
[14] abbreviates: chronic, oral, reduced body weight.

For orientation: NOAEL means the highest dose or exposure tested at which no adverse effect was seen. As usually defined, the LOAEL is the lowest tested level that showed an adverse finding. For orientation: LD50 means the dose expected to kill half of the subjects tested.

Where “and” joins values, the source holds several entries; their conditions need not be identical. Identical values can stand only once.

For the compound `C=CCl` [Vinyl chloride], the no observed adverse effect level (NOAEL) in the series with Mus musculus [1] (developmental) is 1280 mg/m3; in the series with Mus musculus [1] (reproduction developmental, F), 128 mg/m3; in the series with Oryctolagus sp. (developmental), 6390 mg/m3; in the series on Oryctolagus sp. (reproduction developmental, F) it was below 1280 mg/m3; in the series with Rattus norvegicus [2] (developmental, duration: 10 days, inhalation) it was 6390 mg/m3; with Rattus norvegicus [2] (reproduction developmental, duration: 10 days, inhalation, F), below 1280 mg/m3. Further, the NOAEL with Rattus norvegicus [3] worked out at 0.17 mg/kg-day; in the series with Rattus norvegicus [4] (setting [12]) it was 0.13 mg/kg-day; with Mus musculus [5] (developmental, duration: 9 days, inhalation, whole body, CF1, developmental), 128 mg/m3; with Rattus norvegicus [6] (chronic, duration: 149 weeks, oral, diet, Wistar, hepatic), 0.17 mg/kg-day. In addition, the LOAEL with Rattus norvegicus [3] came out at 1.7 mg/kg-day; in the series on Rattus norvegicus [4] (setting [12]), 1.3 mg/kg-day.
With `CCCC[C@@H](C)[C@@H](OC(=O)C[C@@H](CC(=O)O)C(=O)O)[C@H](C[C@@H](C)C[C@H](O)CCCC[C@@H](O)C[C@H](O)[C@H](C)N)OC(=O)C[C@@H](CC(=O)O)C(=O)O` [Fumonisin B1], the NOEL was below 99 ppm with Rattus norvegicus [7] (diet, M/F, Fischer 344, Body Weight Changes: decrease + Blood Chemistry: Crn increase, TP increase, Cho increase, TG increase, ALT increase, ALP increase, AST …) and 0.2 mg/kg-day in the series with Rattus norvegicus [8] (subchronic, duration: 90 days, diet, Fischer 344, Nephrotoxicity).
In the series on Canidae [9], `c1ccc([C@H]2CN3CCSC3=N2)cc1` [Levamisole] had an LOEL of 1.25 mg/kg-day.
Consider `CC(=O)c1ccccc1` [Acetophenone], for which the NOAEL with Rattus norvegicus [4] (subchronic, oral, general toxicity) is 423 mg/kg-day; in the series with Rattus norvegicus [10] (reproduction developmental, gavage, M/F, Sprague-Dawley), 225 mg/kg-day.
As for `ClCC1CO1` (configuration not stated) [Epichlorohydrin], in the series with Rattus norvegicus [4] (setting [13]), the LOAEL came out at 95 mg/m3 and the NOAEL amounted to 19 mg/m3. Besides, in the series with Rattus norvegicus [10] (reproduction developmental, duration: 23 days, gavage, M, Long-Evans, reproductive), the lowest observed adverse effect level (LOAEL) turned out to be 6.25 mg/kg-day.
In turn, `[Tl]` [Thallium] showed an LOAEL with Rattus norvegicus [10] (subchronic, duration: 90 days, gavage, M/F, Sprague-Dawley) of 0.04 mg/kg-day.
In the series with Rattus norvegicus [4] (setting [14]), `FC(F)(Cl)Cl` [Dichlorodifluoromethane] yielded an LOAEL of 150 mg/kg-day and an NOAEL of 15 mg/kg-day. In the series on Rattus norvegicus [10] (chronic, duration: 2 years, gavage, M/F, Crl:CD(SD), Whole Body Effects), this compound had an NOAEL of 15 mg/kg-day.
Take `[Sb]` [Antimony]: the LOAEL worked out at 0.35 mg/kg-day in the series with Rattus norvegicus [4] (chronic, oral, longevity, blood glucose, and cholesterol); 0.35 mg/kg-day in the series on Rattus norvegicus [10] (chronic, duration: 2 years, drinking water, M/F, Long-Evans, Whole Body Effects). Further, the NOAEL turned out to be 99 mg/kg-day with Mus musculus [5] (short-term, duration: 14 days, oral, drinking water, B6C3F1, hepatic) and 0.06 mg/kg-day in the series on Rattus norvegicus [6] (subchronic, duration: 13 weeks, oral, drinking water, Sprague-Dawley, metabolic).
Turning to `Cc1c(N)cccc1N` [2,6-Toluenediamine], the no-observed-adverse-effect level (NOAEL) in the series on Rattus norvegicus [10] (chronic, duration: 2 years, diet, M, Fischer 344, Whole Body Effects) amounted to 25 mg/kg-day; with Rattus norvegicus [10] (chronic, duration: 91 days, diet, M, Fischer 344, Whole Body Effects) it was 62 mg/kg-day.
Turning to `c1ccc2c(c1)oc1ccccc12` [Dibenzofuran], in the series with Rattus norvegicus [7] (gavage, F, Sprague-Dawley, Clinical Observation: Locomotor activity decrease, Salivation Soiled perineal region + Body Weight Changes: decrease + Urinalysis: Volume …), the NOEL turned out to be 40 mg/kg-day. Also, the NOAEL in the series on Rattus norvegicus [7] (gavage, M/F, Sprague-Dawley, Clinical Observation: Locomotor activity decrease, Salivation Soiled perineal region + Body Weight Changes: decrease + Urinalysis: Volume …) stood at 40 mg/kg-day. Besides, in the series with Rattus norvegicus [10] (chronic, duration: 200 days, diet, F, albino, Whole Body Effects), the LOAEL was determined as 12.3 mg/kg-day.
Turning to `C=Cc1ccccc1` [Styrene], the LOAEL in the series on Canidae [11] turned out to be 400 mg/kg-day; in the series with Rattus norvegicus [6] (duration: 14 days, oral, gavage, M, Wistar, neurological), 100 mg/kg-day. In addition, the NOAEL turned out to be 200 mg/kg-day in the series with Canidae [11] and 209 mg/m3 with Homo sapiens (duration: 6 hours, inhalation, M, neurological). Also, in the series with Rattus norvegicus [8] (chronic, duration: 2 years, drinking water, Sprague-Dawley, Decreased bodyweight, females), the NOEL is 7.7 mg/kg-day and 14 mg/kg-day.
In the series with Rattus norvegicus [8] (developmental, Reduced pup survival and bodyweight gain. Maternal toxicity: salivation), `CC1(C)C(C=C(Cl)c2ccc(Cl)cc2)C1C(=O)OC(C#N)c1ccc(F)c(Oc2ccccc2)c1` (configuration not stated) [Flumethrin] had an NOAEL of 0.37 mg/kg-day.
Compound `[V]` [Vanadium] gave an NOAEL in the series with Homo sapiens (duration: 12 weeks, oral, capsule, M/F, hematological) of 0.12 mg/kg-day. Also, in the series on Rattus norvegicus [6] (duration: 16 days, inhalation, F, Fischer 344, respiratory), the LOAEL stood at 0.56 mg/m3.
In the series on Homo sapiens (duration: 1 hours, inhalation, M, respiratory), `F` [Hydrogen fluoride] came in with an LOAEL of 0.409 mg/m3.
With `FC(F)(F)c1ccc(Cl)c(Cl)c1` [1,2-Dichloro-4-(trifluoromethyl)benzene], the LD50 with Oryctolagus sp. is above 5000 mg/kg; in the series with Oryctolagus sp. (occlusive) it was 5000 mg/kg; with Rattus norvegicus [2] (acute, oral, CF Nelson), 1150 mg/kg. Besides, the NOAEL with Rattus norvegicus [2] (short-term, duration: 28 days, oral, diet) was 20 ppm; in the series on Rattus norvegicus [10] (short-term, duration: 14 days, gavage, M/F, Albino CD) it was 60 mg/kg-day.

The record behind these values is EPA's ToxValDB 9.5.
